Marks after values point to notes of the source that are not given here.

Holding throughout (type): in vivo
Assay [1] relates to high fat fed mice. Description: Sub chronic 21 day twice daily study in high fat fed mice (energy intake, body weight, body composition, glucose, insulin). The conditions noted are these: 25 nmol/kg twice daily. How it is done:
All animal experiments were carried out in accordance with the UK Animals (Scientific Procedures) Act 1986. […] On day 21, a non-fasted 24 h glucose profile was conducted. […] HOMA-IR was determined using the equation HOMA-IR=fasting glucose (mmol/l)×fasting insulin (mU/l)/22.5. […] Terminal analysis included measurement of total body fat and lean mass by DEXA scanning (Piximus Densitometer, Inside Outside Sales, Madison Wis., USA) and extraction of pancreatic tissue for analysis as detailed below. […] Briefly, pancreatic tissues were fixed in 4% parafolmaldehyde at 4° C. for 48 h. Pancreata were then embedded in paraffin wax and processed using an automated tissue processor (Leica TP1020, Leica Microsystems, Nussloch, Germany). […] Abcam, ab6995) or guinea-pig anti-glucagon antibody (PCA2/4, 1:400; raised in-house). […] The slides were viewed under a FITC (488 nm) or TRITC filter (594 nm) using a fluorescent microscope (Olympus system microscope, model BX51) and photographed using a DP70 camera adapter system. Islet parameters were analysed using Cell^F image analysis software (Olympus Soft Imaging Solutions, GmbH). Blood samples were collected from the cut tip on the tail vein of conscious mice into chilled fluoride/heparin glucose micro-centrifuge tubes (Sarstedt, Numbrecht, Germany) at the time points indicated in the Drawings. Blood glucose was measured directly using a hand-held Ascencia Contour blood glucose meter (Bayer Healthcare, Newbury, Berkshire, UK).

The test system of assay [2] is high fat fed mice. Description: Metabolic response to GIP after 21 days treatment. The procedure: Twice daily (09:30 and 17:30 h) i.p. injections of saline vehicle (0.9% w/v NaCl), polypeptides (at 25 nmol/kg bw) were administered for 21 days in high fat mice. Energy intake and body weight were monitored daily, and non-fasting blood glucose and plasma insulin concentrations were assessed at 3 day intervals. On day 21, a non-fasted 24 h glucose profile was conducted. At the end of the treatment period, i.p. glucose tolerance (18 mmol/kg bw), biological response to GIP (18 mmol/kg glucose in combination with native GIP (25 nmol/kg); i.p.) and insulin sensitivity (15 U/kg bw; i.p.) tests were performed. HOMA-IR was determined using the equation HOMA-IR=fasting glucose (mmol/l)×fasting insulin (mU/l)/22.5. All test solutions were administered in a final volume of 5 ml/kg body weight, at 10:00 h without previous 09:30 h peptide injection. Terminal analysis included measurement of total body fat and lean mass by DEXA scanning (Piximus Densitometer, Inside Outside Sales, Madison Wis., USA) and extraction of pancreatic tissue for analysis as detailed below. Immunohistochemistry Pancreatic tissue was excised, divided longitudinally and either immediately snap frozen for subsequent extraction of insulin using acid ethanol extraction (5 ml/g) as described by Irwin et al., 2015 (Diabetes. 2015 August; 64(8):2996-3009), or processed for immunohistochemical examination. Briefly, pancreatic tissues were fixed in 4% parafolmaldehyde at 4° C. for 48 h. Pancreata were then embedded in paraffin wax and processed using an automated tissue processor (Leica TP1020, Leica Microsystems, Nussloch, Germany). Immunohistochemistry was performed as described by Vasu et al., 2014 (PLoS One. 2014 Jun. 26; 9(6):e101005). Succinctly, tissue sections were deparaffinised, rehydrated and probed with primary antibodies: mouse anti-insulin antibody (1:500; Abcam, ab6995) or guinea-pig anti-glucagon antibody (PCA2/4, 1:400; raised in-house). The sections were then incubated with secondary antibody, Alexa Fluor 488 goat anti-guinea pig IgG (1:400) or Alexa Fluor 594 goat anti-mouse IgG (1:400); respectively. The slides were viewed under a FITC (488 nm) or TRITC filter (594 nm) using a fluorescent microscope (Olympus system microscope, model BX51) and photographed using a DP70 camera adapter system. Islet parameters were analysed using Cell^F image analysis software (Olympus Soft Imaging Solutions, GmbH).
Tests were conducted after twice daily treatment with saline vehicle (0.9% (w/v) NaCl), (DAla^2)GIP and (DAla^2)GIP/xenin-8-Gln (each at 25 nmol/kg bw) for 21 days. For glucose tolerance test, blood glucose and plasma insulin concentrations were measured before and 15, 30, 60 and 105 min after i.p injection of glucose (18 mmol/kg bw). For metabolic response to GIP, blood glucose and plasma insulin concentrations were measured before and 15, 30, 60 and 105 min after i.p injection of glucose (18 mmol/kg bw) in combination with GIP (25 nmol/kg bw). All studies were conducted in 18 h fasted mice. AUC values (0-105 min) for blood glucose and plasma insulin are shown. Values represent means±SEM for 6-8 mice. *P<0.05, **P<0.01, […] compared to high fat controls. ^ΔP<0.05, ^ΔΔP<0.01, ^ΔΔΔP<0.001 compared to lean controls.

Assay [3] relates to high fat fed mice. Kind of assay: Pancreatic insulin content and islet histology after 21 days treatment. How it is done:
On day 21, a non-fasted 24 h glucose profile was conducted. […] HOMA-IR was determined using the equation HOMA-IR=fasting glucose (mmol/l)×fasting insulin (mU/l)/22.5. […] Terminal analysis included measurement of total body fat and lean mass by DEXA scanning (Piximus Densitometer, Inside Outside Sales, Madison Wis., USA) and extraction of pancreatic tissue for analysis as detailed below. […] Briefly, pancreatic tissues were fixed in 4% parafolmaldehyde at 4° C. for 48 h. Pancreata were then embedded in paraffin wax and processed using an automated tissue processor (Leica TP1020, Leica Microsystems, Nussloch, Germany). Immunohistochemistry was performed as described by Vasu et al., 2014 (PLoS One. 2014 Jun. 26; 9(6):e101005). […] Abcam, ab6995) or guinea-pig anti-glucagon antibody (PCA2/4, 1:400; raised in-house). […] The slides were viewed under a FITC (488 nm) or TRITC filter (594 nm) using a fluorescent microscope (Olympus system microscope, model BX51) and photographed using a DP70 camera adapter system. Islet parameters were analysed using Cell^F image analysis software (Olympus Soft Imaging Solutions, GmbH). Blood samples were collected from the cut tip on the tail vein of conscious mice into chilled fluoride/heparin glucose micro-centrifuge tubes (Sarstedt, Numbrecht, Germany) at the time points indicated in the Drawings. Blood glucose was measured directly using a hand-held Ascencia Contour blood glucose meter (Bayer Healthcare, Newbury, Berkshire, UK).

Where [4] appears, read: 0-105 min, glucose 18 mmol/kg + GIP 25 nmol/kg i.p., 18 h fasted, after 21 days treatment, mean ± SEM.

`CC[C@H](C)[C@H](NC(=O)[C@H](CO)NC(=O)[C@H](Cc1ccc(O)cc1)NC(=O)[C@H](CC(=O)O)NC(=O)[C@H](CO)NC(=O)[C@@H](NC(=O)[C@H](Cc1ccccc1)NC(=O)[C@@H](NC(=O)CNC(=O)[C@H](CCC(=O)O)NC(=O)[C@@H](C)NC(=O)[C@@H](N)Cc1ccc(O)cc1)[C@@H](C)O)[C@@H](C)CC)C(=O)N[C@@H](C)C(=O)N[C@@H](CCSC)C(=O)N[C@@H](CC(=O)O)C(=O)N[C@@H](CCCCN)C(=O)N[C@H](C(=O)N[C@@H](Cc1c[nH]cn1)C(=O)N[C@@H](CCC(N)=O)C(=O)N[C@@H](CCC(N)=O)C(=O)N[C@@H](CC(=O)O)C(=O)N[C@@H](Cc1ccccc1)C(=O)N[C@H](C(=O)N[C@@H](CC(N)=O)C(=O)N[C@@H](Cc1c[nH]c2ccccc12)C(=O)N[C@@H](CC(C)C)C(=O)N[C@@H](CC(C)C)C(=O)N[C@@H](C)C(=O)N[C@@H](CCC(N)=O)C(=O)N[C@@H](CCCCN)C(=O)NCC(=O)N[C@@H](CCCCN)C(=O)N[C@@H](CCCCN)C(=O)N[C@@H](CC(N)=O)C(=O)N[C@@H](CC(=O)O)C(=O)N[C@@H](Cc1c[nH]c2ccccc12)C(=O)N[C@@H](CCCCN)C(=O)N[C@@H](Cc1c[nH]cn1)C(=O)N[C@@H](CC(N)=O)C(=O)N[C@H](C(=O)N[C@H](C(=O)N[C@@H](CCC(N)=O)C(=O)O)[C@@H](C)O)[C@@H](C)CC)C(C)C)[C@@H](C)CC` [(DAla2)GIP, TYR-(d)ALA-GLU-GLY-THR-PHE-ILE-SER-ASP-TYR-SER-ILE-ALA-MET-ASP-LYS-ILE-HIS-GLN-GLN-ASP-PHE-VAL-ASN-TRP-LEU-LEU-ALA-GLN-LYS-GLY-LYS-LYS-ASN-ASP-TRP-LYS-HIS-ASN-ILE-THR-GLN]: the “Non-fasting 24 h glucose profile on day 21” value in the assay on high fat fed mice [1] is “also reduced, but not to the same extent”. The Circulating plasma insulin entry in the assay on high fat fed mice [1] (21 days) is on record as “tendency for reduced plasma insulin levels”. The “Energy intake or body weight” value in the assay with high fat fed mice [1] (21 days, vs high fat controls) is “no significant effect”. Also, the “Total body fat and lean mass (DXA)” value with high fat fed mice [1] (after 21 days) is on record as “unaltered”. Also, the “Non-fasting blood glucose vs lean control mice” value with high fat fed mice [1] (from day 12 onwards) is given as “not significantly different from lean control mice”. Besides, in the assay with high fat fed mice [2] (setting [4]), the “Metabolic response to GIP Blood glucose AUC” value is 1029.5 ± 138.0* mmol/l · min and the “Metabolic response to GIP Plasma insulin AUC” value is listed as 142.3 ± 19.2**^,ΔΔΔ ng/ml · min. Also, in the assay on high fat fed mice [2] (21 days treatment), the “Glucose lowering and insulin releasing actions of native GIP” value is recorded as “significantly (P<0.05) improved”. In addition, the “Decrease of overall blood glucose AUC in response to GIP vs saline treated control mice” value in the assay with high fat fed mice [2] (21 days treatment, P<0.05) is on record as 36%. For the same compound, in the assay with high fat fed mice [2] (21 days treatment, vs high fat controls), the “GIP-induced elevations of plasma insulin (AUC)” value is “significantly (P<0.05 to P<0.01) augmented”. For the same compound, the “Pancreatic islet area and beta cell area” value in the assay with high fat fed mice [3] (21 days twice daily 25 nmol/kg) is “no significant effect”. Moreover, in the assay with high fat fed mice [3] (21 days twice daily 25 nmol/kg, vs high fat controls), the “Pancreatic alpha cell area” value is given as “decreased (P<0.001)”. Further, the “Number of islets per mm2” value in the assay with high fat fed mice [3] (21 days, vs all other groups of mice) is “significantly (P<0.05 to P<0.01) augmented”.
